Assay results reported in ChEMBL document CHEMBL1130795, “Synthesis and SAR of a novel, potent and structurally simple LTD4 antagonist of the quinoline class” (Bioorg Med Chem Lett, 1998).
Calls of active or inactive are those of the source. No cut-off for these calls is given here.

What was measured:
[1] = target: Cysteinyl leukotriene receptor 1 (Cavia porcellus); assay: In vitro for antagonistic activity against LTD4 receptor in guinea pig ileum
[2] = target: T1, Cysteinyl leukotriene receptor 1 (Cavia porcellus, UniProt Q2NNR5); assay: In vitro inhibition of [3H]LTD4 binding to guinea pig lung membrane; type: tissue-based
T1 sequence (Q2NNR5 whole entry): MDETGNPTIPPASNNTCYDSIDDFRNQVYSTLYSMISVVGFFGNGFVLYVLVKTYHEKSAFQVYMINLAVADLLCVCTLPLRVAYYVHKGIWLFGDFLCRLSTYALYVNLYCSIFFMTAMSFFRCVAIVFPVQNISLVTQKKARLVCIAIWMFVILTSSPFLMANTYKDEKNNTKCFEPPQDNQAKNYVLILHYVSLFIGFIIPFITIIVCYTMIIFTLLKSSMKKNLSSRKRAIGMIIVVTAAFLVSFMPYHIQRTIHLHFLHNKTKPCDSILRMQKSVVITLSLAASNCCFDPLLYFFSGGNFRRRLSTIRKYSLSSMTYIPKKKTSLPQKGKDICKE

Cavia porcellus [3] = assay: Compound was evaluated in vivo for LTD4-induced bronchospasm in guinea pig; type: functional
[4] = target: T2, Cysteinyl leukotriene receptor 1 (Cavia porcellus) (UniProt Q2NNR5); assay: In vitro antagonistic activity against LTD4 in guinea pig ileum at 200 nM; type: functional, tissue-based
T2 sequence (whole entry): T1 sequence (Q2NNR5 whole entry)

Cavia porcellus [5] = assay: Compound was evaluated in vivo for LTD4-induced bronchospasm in guinea pig; IA means inactive at 10 mg/kg p.o.; type: functional, organism-based; parameters: dose 10 mg/kg
[6] = target: T2, Cysteinyl leukotriene receptor 1 (Cavia porcellus); assay: In vitro antagonistic activity against LTD4 in guinea pig ileum at 240 nM; type: functional, tissue-based

Row | IC50 [1] | Structure (SMILES) | also measured
1 | 4 nM | CCC(CC)(CC(=O)Nc1cccc(SCc2ccc3ccc(F)cc3n2)c1)C(=O)O | –
2 | 6 nM | CCC(CC)(CC(=O)Nc1cccc(OCc2ccc3cccc(F)c3n2)c1)C(=O)O | –
3 | 2 nM | CCC(CC)(CC(=O)Nc1cccc(OCc2ccc3cc(F)ccc3n2)c1)C(=O)O | –
4 | 1.4 nM | CC(C)(CC(=O)Nc1cccc(OCc2ccc3ccc(F)cc3n2)c1)C(=O)O | –
5 | 11 nM | CCC(CC)(CC(=O)Nc1cccc(OCc2ccc3ccc(C)cc3n2)c1)C(=O)O | –
6 | 0.9 nM | CCC(CC)(CC(=O)Nc1cccc(OCc2ccc3ccccc3n2)c1)C(=O)O | IC50 [2]: 9 nM; ED50 (Cavia porcellus [3]): 0.42 mg/kg
7 | 1 nM | CCCCC(CCCC)(CC(=O)Nc1cccc(OCc2ccc3ccc(F)cc3n2)c1)C(=O)O | –
8 | 0.8 nM | CCC(CC)(CC(=O)Nc1cccc(OCc2ccc3ccc(Cl)cc3n2)c1)C(=O)O | IC50 [2]: 64 nM; ED50 (Cavia porcellus [3]): 0.11 mg/kg
9 | – | CCC(CC)(CC(=O)Nc1cccc(OCc2ccc3ccc(OCc4ccccc4)cc3n2)c1)C(=O)O | inhibition [4]: 0%
10 | 2 nM | CCCC(CCC)(CC(=O)Nc1cccc(OCc2ccc3ccc(F)cc3n2)c1)C(=O)O | –
11 | 0.3 nM | CCC(CC)(CC(=O)Nc1cccc(OCc2ccc3c(F)cccc3n2)c1)C(=O)O | –
12 | 3900 nM | CCC(CC)(CC(=O)Nc1cccc(COc2ccc3ccccc3n2)c1)C(=O)O | –
13 | 24 nM | CCC(CC)(CC(=O)Nc1cccc(OCc2ccc3cc(C)ccc3n2)c1)C(=O)O | –
14 | 80 nM | CCC(CC)(CC(=O)Nc1cccc(OCc2ccc3ccc(OC)cc3n2)c1)C(=O)O | –
15 | 0.2 nM | CCC(CC)(CC(=O)Nc1cccc(OCc2ccc3ccc(F)cc3n2)c1)C(=O)O | IC50 [2]: 6 nM; ED50 (Cavia porcellus [3]): 0.07 mg/kg
16 | 6.4 nM | CCC(C)(CC(=O)Nc1cccc(OCc2ccc3ccc(F)cc3n2)c1)C(=O)O (configuration not stated) | –
17 | 0.4 nM | CCC(CC)(CC(=O)Nc1cccc(/C=C/c2ccc3ccc(F)cc3n2)c1)C(=O)O | –
18 | 9 nM | CCC(CC)(CC(=O)Nc1cccc(OCc2ccc3cc4c(cc3n2)CCC4)c1)C(=O)O | –
19 | 9 nM | CCC(CC)(CC(=O)Nc1cccc(OCc2ccc3ccc(OC(F)(F)F)cc3n2)c1)C(=O)O | –
20 | 0.5 nM | CCC(CC)(CC(=O)Nc1cccc(OCc2ccc3cc(F)c(F)cc3n2)c1)C(=O)O | –
21 | 3 nM | CCC(CC)(CC(=O)Nc1cccc(OCc2ccc3ccc(C(F)(F)F)cc3n2)c1)C(=O)O | ED50 (Cavia porcellus [5]): inactive
22 | 2500 nM | CCC(CC)(CC(=O)Nc1cccc(OCc2ccc3ccc(C(C)=O)cc3n2)c1)C(=O)O | –
23 | 4 nM | CCC(CC)(CC(=O)Nc1cccc(OCc2ccc3ccc(Br)cc3n2)c1)C(=O)O | –
24 | 140 nM | CCC(CC)(CC(=O)O)C(=O)Nc1cccc(OCc2ccc3ccc(F)cc3n2)c1 | –
25 | 10 nM | O=C(CC1(C(=O)O)CCCC1)Nc1cccc(OCc2ccc3ccc(F)cc3n2)c1 | –
26 | 7.3 nM | O=C(CC1(C(=O)O)CCCCC1)Nc1cccc(OCc2ccc3ccc(F)cc3n2)c1 | –
27 | 200 nM | O=C(O)CCC(=O)Nc1cccc(OCc2ccc3ccc(F)cc3n2)c1 | –
28 | – | CCC(CC)(CC(=O)Nc1cccc(OCc2ccc3ccc(O)cc3n2)c1)C(=O)O | inhibition [6]: 0%
29 | 11 nM | CCC(CC)(CC(=O)Nc1cccc(OCc2ccc3cc(C)c(C)cc3n2)c1)C(=O)O | –
30 | – | COc1cc(C(=O)NS(=O)(=O)c2ccccc2C)ccc1Cc1cn(C)c2ccc(NC(=O)OC3CCCC3)cc12 [ZAFIRLUKAST] | ED50 (Cavia porcellus [3]): 0.55 mg/kg
